Assay results published in patent US8961930B2, “Isatin derivatives for use as in vivo imaging agents” (Imperial Innovations Limited, priority 2008, dated 2015).

Tests used:
[1] = test system: caspase-3 cognate target poly(ADP-ribose) polymerase (PARP); assay: Cellular activity: PARP cleavage immunoblot in cisplatin-treated RIF-1 cells; type: cell-based, murine; conditions: 15 min pre-incubation, cisplatin 100 μM 48 h
From the text: The Δ-PARP immunoblot band corresponds to the endogenous 89 kDa large fragment of PARP resulting from caspase 3 cleavage. α-tubulin was used as a loading control.

PEO1 cells = assay: In vitro [^18F]11 uptake in PEO1 cells; type: cell-based, human; conditions: 50 μg/mL CDDP, 60 min uptake
From the text: (§1) The human ovarian carcinoma cell lines PEO1/4 were established and characterised as described in Wolf C. R. et al.^22 and Langdon S. P. et al^23. Briefly, PEO1/4 cells were derived from the malignant ascites of a patient with a recurrent mucinous ovarian adenocarcinoma, before (PEO1) and after (PEO4) the onset of a clinical resistance to cisplatin chemotherapy in this patient. The radiation-induced murine fibrosarcoma (RIF-1) tumour cell line was originally characterised by Twentyman P. R. et al.^20. The LNM35 tumour cells are a highly lymphogenous metastatic subline of the human large pulmonary carcinoma NCI-H460 cell line, as described in Kozaki K. et al.^24. […]
(§2) Cells were plated in triplicate in 12-well plates 2 or 3 days prior to the experiments and treated with the antineoplastic platinum-derived drug Cisplatin, 5-FU, the protein synthesis inhibitor cycloheximide (CHX) or the topoisomerase inhibitor etoposide (VP-16) (Sigma, UK) or corresponding vehicle at the indicated concentration and time. […] 260 μL of each sample were transferred in counting tubes and Fluorine-18 radioactivity was immediately determined using a Packard Cobra II gamma counter (Perkin Elmer, UK). […] BCA Protein assay (Pierce, UK) was performed for all samples and datas are normalized and expressed as CCPMA or RLU (Relative Light Unit)/mg of protein.

[2] = In vivo biodistribution studies (Example 5); parameters: species or system C3H/hej mice; conditions: i.v., 2-60 min
Experimental: The stability of novel compound [^18F]11 and known compound [^125I]14 in plasma and liver was measured over time following administration in mice. [^18F]11 was injected intravenously into tumor-bearing mice and its tissue distribution was measured in selected tissues at 2, 15 and 60 min after injection. [^125I]14 was injected intravenously into non-tumour bearing mice and its tissue distribution was measured at selected time points from 2 to 60 minutes after injection. Furthermore, the in vivo metabolic stability of the radiotracer was determined from plasma and liver samples and, for [^18F]11, in urine samples.
The radiation-induced murine fibrosarcoma (RIF-1) tumour cells^20 were maintained in RPMI 1640 medium (Invitrogen Ltd, Paisley, UK) supplemented with 10% fetal calf serum (BioWhittaker Europe Ltd, Verviers, Belgium), 2 mM L-glutamine, 100 U/mL penicillin, 100 μg/mL streptomycin and 0.25 μg/mL fungizone (Gibco, UK) at 37° C. in a humidified incubator with 5% CO2. All animal work was done by licensed investigators in accordance with the United Kingdom's “Guidance on the Operation of Animals (Scientific Procedures) Act 1986” (HMSO, London, United Kingdom, 1990) and in full compliance with government regulations and guidelines on the welfare of animals in experimental neoplasia^21. Tumors were established in mice by subcutaneous injection of 5×10^5 cells on the back of male C3H/hej mice (Harlan, Bicester, Oxfordshire, UK). Tumour growth was monitored every two days using electronic callipers, and tumor volume estimated using the equation (π/6)×L×W×D (L=length, W=width and D=depth). Animals were selected for biodistribution studies of [^18F]11 when the tumors reached ˜100-150 mm^3; biodistribution of [^125I]14 was done in non-tumor-bearing mice.
Mice were injected intravenously via the lateral vein with 0.08-0.13 mL of radioactivity (˜0.37 MBq of [^125I]14 or 3.7 MBq of [^18F]11) dissolved in phosphate buffered saline. At selected times after injection (2-60 min) mice were sacrificed by exsanguination via cardiac puncture under general anesthesia (isofluorane inhalation). Aliquots of heparinised blood were rapidly centrifuged (2000 g for 5 minutes) to obtain plasma. The radioactivity contained in tissues was determined by gamma-counting on a Cobra II Auto-Gamma counter (Packard Instruments, Meriden, Conn., USA) and expressed as a percentage of injected dose per gram of tissue (% ID/g). A minimum of three mice was used for each time point. All animals were treatment-naïve.

RIF-1 cells = assay: In vitro [^18F]11 uptake in RIF-1 cells; type: cell-based, murine
From the text: as §1
as §2, with “protein. […]” for “protein.”

LNM35 cells = assay: In vitro [^18F]11 uptake in LNM35 cells; type: cell-based, human; conditions: 100 μM CDDP or VP-16, 60 min uptake
From the text: as §1, §2

SMILES	effect on induction of cleaved PARP by cisplatin induced apoptosis [1]	[^18F]11 uptake in drug-treated cells compared to control (PEO1 cells)	Bone uptake ([2]; RIF-1 tumor-bearing mice)	uptake in untreated tumors, heart and brain ([2]; RIF-1 tumor-bearing mice)	tissue distribution and elimination ([2]; mice)	increase in uptake in apoptotic cells (RIF-1 cells; CDDP 100 μM 48 h vs vehicle, 1 h incubation) [fold]	[^18F]11 uptake in drug-treated cells compared to control (RIF-1 cells; CDDP or CHX 10 μg/mL 24 h, 60 min uptake)	[^18F]11 uptake in drug-treated cells compared to control (LNM35 cells)
O=C1C(=O)N(Cc2cn(CCF)nn2)c2ccc(S(=O)(=O)N3CCC[C@H]3COc3ccc(F)cc3F)cc21 [Compound 11, (S)-1-((1-(2-Fluoroethyl)-1H-[1,2,3]-triazol-4-yl)methyl)-5-(2(2,4-difluorophenoxymethyl)-pyrrolidine-1-sulfonyl)isatin]	disrupted the induction of caspase-3 cognate target PARP by cisplatin induced apoptosis							
O=C1C(=O)N(Cc2cn(CC[18F])nn2)c2ccc(S(=O)(=O)N3CCC[C@H]3COc3ccc(F)cc3F)cc21 [[^18F]11, (S)-1-((1-(2-Fluoroethyl)-1H-[1,2,3]-triazol-4-yl)methyl)-5-(2(2,4-difluorophenoxymethyl)-pyrrolidine-1-sulfonyl)isatin]		significantly increased	low	low	distributed rapidly to tissues and was also rapidly eliminated	~1.5	significantly increased	significantly increased
